Results from patent publication US20060281700A1, “SYNERGISTIC MODULATION OF FLT3 KINASE USING AMINOPYRIMIDINES KINASE MODULATORS” (priority 2005, published 2006).

Key:
Baf3-ITD cells = assay: Cell proliferation assay, single agents and FTI/FLT3 inhibitor combinations, Baf3-ITD; type: cell-based, murine
Protocol: The cell lines that were tested included those that are dependent on FLT3ITD mutant activity for growth (MV4-11 and Baf3-FLT3ITD), FLT3 wt activity for growth (Baf3FLT3) and those that grow independent of FLT3 activity (THP-1). […] Baf3-FLT3 and Baf3-FLT3ITD cell lines were obtained from Dr. Michael Henrich and the Oregon Health Sciences University. The Baf3 FLT3 cell lines were created by stable transfection of parental Baf3 cells (a murine B cell lymphoma line dependent on the cytokine IL-3 for growth) with either wild-type FLT3 or FLT3 containing the ITD insertion in the juxatamembrane domain of the receptor resulting in its constitutive activation. Cells were selected for their ability to grow in the absence of IL-3 and in either the presence of FLT3 ligand (Baf3-FLT3) or independent of any growth factor (Baf3-ITD). […]
Dose responses for the individual compounds alone were determined for each cell line using a standard 72-hour cell proliferation assay (see FIGS. 6.1-6.8). […]
To statistically evaluate the synergy of a FLT3 inhibitor and an FTI in FLT3 dependent cell lines, dosing combinations were evaluated by the method of Chou and Talalay. See Chou T C, Talalay P. (1984) “Quantitative analysis of dose-effect relationships: the combined effects of multiple drugs or enzyme inhibitors.” Adv Enzyme Regul. […] Using this method, multiple FTI and FLT3 combinations were evaluated. […]

[1] = Tolerability in MV4-11 tumor-bearing nude mice (body weight, overt clinical signs); details: either agent alone or in combination
Protocol: Female athymic nude mice weighing no less than 20-21 grams were inoculated subcutaneously in the left inguinal region of the thigh with 5×10^6 tumor cells in a delivery volume of 0.2 mL. For regression studies, the tumors were allowed to grow to a pre-determined size prior to initiation of dosing. […] Mice were dosed orally by gavage with vehicle (control group) or compound at various doses twice-daily (b.i.d.) during the week and once-daily (q.d.) on weekends. […] If tumors in the control mice reached ˜10% of body weight (˜2.0 grams), the study was to be terminated. […] During the study, tumor growth was measured three times-a-week (M, W, F) using electronic Vernier calipers. Tumor volume (mm^3) was calculated using the formula […], where L=length (mm) and W=width (shortest distance in mm) of the tumor. Body weight was measured three times-a-week and a loss of body weight >10% was used as an indication of lack of compound tolerability. […]
Female athymic nude mice weighing no less than 20-21 grams were inoculated subcutaneously in the left inguinal region of the thigh with 5×10^6 tumor cells in a delivery volume of 0.2 mL. For regression studies, the tumors were allowed to grow to a pre-determined size prior to initiation of dosing. […] During the study, tumor growth was measured three times-a-week (M, W, F) using electronic Vernier calipers. […]

## Cn1cncc1C(N)(c1ccc(Cl)cc1)c1ccc2c(c1)c(-c1cccc(Cl)c1)cc(=O)n2C (single isomer, unassigned; (+)) [Tipifarnib, (+)-6-[amino(4-chlorophenyl)(1-methyl-1H-imidazol-5-yl)methyl]-4-(3-chlorophenyl)-1-methyl-2(1H)-quinolinone]
Baf3-ITD cells; Baf3-ITD, Compound A 50 nM
  increase in potency of Tipifarnib with a single sub-IC50 dose of FLT3 inhibitor Compound A: more than 3 fold
Baf3-ITD cells; Mus musculus, Baf3-ITD proliferation, FTI alone or in the combination named
  IC50: 548 nM
[1]; 9-day treatment
  overt toxicity: No overt toxicity
[1]; 16-day treatment
  overt toxicity: No overt toxicity
